These results are taken from patent US10383872B2, “Pharmaceutical compositions comprising phenylaminopyrimidine derivative” (priority 2015, dated 2019).

Data set [1] can be described thus: Oral gavage pharmacokinetics (suspension) in albino wistar rats. As to conditions: rat, in vivo, oral gavage 40 mg/kg·bw. From the text: FIG. 1 illustrates the area under the curve in albino wistar rats after oral administration of NRC-AN-019 “as is” and different solid dispersions in accordance with the invention.
The study discloses better bioavailability characteristics of NRC-AN-019 in the formulation of the present invention than NRC-AN-019 as such. Thus, the optimum bioavailability can be achieved for the therapeutic effectiveness of NRC-AN-019. The maximum concentration and AUC of the formulation of the present invention are substantially higher than that of NRC-AN-019 “as is” due to better absorption characteristics of the solid dispersion of NRC-AN-019 in amorphous or, partially amorphous or, crystalline form. The details of the process of the invention are provided in the examples given below which is provided by way of illustration only and therefore should not be construed to limit the scope of the invention. The preparation of the present invention that can be administered by the oral route is carried out according to the following process.
NRC-AN-019 active pharmaceutical ingredient (API) and the compositions of the present invention were administered through oral gavage at 40 mg/kg·bw in the form of a suspension in albino wistar rats. […] The Cmax and AUC0-∞ for the compositions of the present invention vary between 900 ng/mL to 2000 ng/mL and 7500 ng·hr/mL to 16000 ng·hr/mL respectively.

Data set [2] is described as follows: Solubility of NRC-AN-019 (aqueous at physiological pH; organic solvents). The class given is physicochemical. From the text: Its molecular formula is C25H17F6N5O and its relative molecular mass is 517.44.
It is soluble in dimethylformamide, dimethylacetamide and dimethyl sulfoxide. NRC-AN-019 presents specific difficulties in relation to solubility and its formulation development. Oral absorption of such insoluble drugs is the key point to be considered in solving the problem of low bioavailability.

Each structure is given as a SMILES string. In brackets after ≈: the same amount, converted by molar mass.

A word on the Cmax: it is the peak of the concentration-time curve. In general, solubility refers to how much of the substance goes into solution per volume. Higher therefore signals much dissolved substance.

`Cc1ccc(NC(=O)c2cc(C(F)(F)F)cc(C(F)(F)F)c2)cc1Nc1nccc(-c2cccnc2)n1` [NRC-AN-019, (3,5-Bis trifluoromethyl)-N-[4-methyl-3-(4-pyridin-3-yl-pyrimidin-2-yl-amino)phenyl]benzamide] registered a Cmax in data set [1] of 33.7 ng/mL. In data set [1] (read-out: average AUC0-∞), the AUC(0-inf) was found to be 453 ng·h/mL. Also, the solubility is 6.6 µg/mL (≈ 12.8 µM) in data set [2] (aqueous medium at pH 1.2 (buffer not named), pH 1.2, simulated gastric fluid) and 0.2 µg/mL (≈ 0.387 µM) in data set [2] (aqueous medium at pH 2.0 (buffer not named), pH 2, simulated gastric fluid). Further, the “solubility in organic solvents” value in data set [2] (dimethylformamide, dimethylacetamide and dimethyl sulfoxide) is “soluble”. Moreover, the aqueous solubility result in data set [2] (pH 3.0, 4.0, 5.0, 6.0, 6.8, 7.0, 7.5, 8.0 and water) was “below detection limit”. Further, the solubility in water result in data set [2] (water) is listed as “practically insoluble”.
